Like-named read-outs stand apart in the source and are kept apart here.
Columns and labels:
CNS SF-539 = assay: COMPARE screening (NCI human cancer cell line screen), cytotoxicity GI50; assay type: cell-based
In short: (§1)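 Read-out is sulforhodamine B optical density, expressed as a ratio to untreated control and plotted as percentage growth against log10 compound concentration. Exposure lasted 48 h at five concentrations from 100 to 0.01 μM in the NCI60 screen.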

colon HCT-116 = assay: as above; assay type: cell-based
In short: as §1

lung HOP-62 = assay: as above; assay type: cell-based
In short: as §1

melanoma UACC-62 = assay: as above; assay type: cell-based
In short: as §1

ovarian OVCAR-3 = assay: as above; assay type: cell-based
In short: as §1

prostate DU-145 = assay: as above; assay type: cell-based
In short: as §1

renal SN12C = assay: as above; assay type: cell-based
In short: as §1

breast MDA-MB-435 = assay: as above; assay type: cell-based
Description: COMPARE screening. The compounds described herein were examined for antiproliferative activity against the human cancer cell lines in the National Cancer Institute screen (COMPARE screening), in which the activity of each compound was evaluated with approximately 55 different cancer cell lines of diverse tumor origins. […] Therefore, the MGM value represents an overall assessment of toxicity of the compound across numerous cell lines.

[1] = tested on: all human cancer cell lines successfully tested; assay: NCI screen mean graph midpoint (MGM) for growth inhibition; assay type: cell-based
In short: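 NCI60 panel cells exposed to compound at 100, 10, 1, 0.1 and 0.01 μM for 48 h, then sulforhodamine B staining. Percentage growth versus control plotted against log concentration; MGM is the midpoint across all lines tested.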

[2] = tested on: panel of twelve human tumor cell lines; assay: Hollow fiber assay; assay type: in vivo; parameters: key to IP Score / SC score / Total score: 2 points each time viable cell mass falls ≥50% vs vehicle controls; key to Cell kill: A net cell kill at one or more implant sites is indicated with a Y; conditions: for IP Score: intraperitoneal fibers in athymic nude mice, score 2 per 50% or greater reduction in viable cell mass; for IP Score / SC score: compounds IP once daily, four doses, two dose levels; for Cell kill: net cell kill at one or more implant sites; for SC score: subcutaneous fibers in athymic nude mice; for Total score: sum of IP and SC scores
Description: Hollow Fiber Activity. […] The effects of the compounds on the reduction of viable cancer cell mass compared to those of controls were determined. Each compound was tested in the hollow fiber assay against a panel of twelve human tumor cell lines as described previously; see, Hollingshead, M.; Plowman, J.; Alley, M.; Mayo, J.; Sausville, E., The Hollow Fiber Assay. Contrib. Oncol. 1999, 54, 109-120; and Plowman, J.; Camalier, R.; Alley, M.; Sausville, E.; Schepartz, S. Contrib. Oncol. […] The compounds were solubilized in 10% DMSO in saline/Tween-80® and administered intraperitoneally once daily for a total of four doses at each of two dose levels. The two doses were selected based on single dose toxicity studies for each derivative. A score of 2 was assigned each time the compound produced a 50% or greater reduction in viable cell mass compared to vehicle-treated controls. The score for each compound was summed for the intraperitoneal fibers and the subcutaneous fibers to provide the total score for each derivative as shown in Table 3 and Table 4. For comparative purposes, the score for the clinically used anticancer drug paclitaxel is provided.

[3] = CNS SF-539, concentration corresponding to 50% growth inhibition, read-out: cytotoxicity (GI50 in μM) CNS SF-539
[4] = colon HCT-116, concentration corresponding to 50% growth inhibition, read-out: cytotoxicity (GI50 in μM) colon HCT-116
[5] = lung HOP-62, concentration corresponding to 50% growth inhibition, read-out: cytotoxicity (GI50 in μM) lung HOP-62
[6] = melanoma UACC-62, concentration corresponding to 50% growth inhibition, read-out: cytotoxicity (GI50 in μM) melanoma UACC-62
[7] = ovarian OVCAR-3, concentration corresponding to 50% growth inhibition, read-out: cytotoxicity (GI50 in μM) ovarian OVCAR-3
[8] = prostate DU-145, concentration corresponding to 50% growth inhibition, read-out: cytotoxicity (GI50 in μM) prostate DU-145
[9] = renal SN12C, concentration corresponding to 50% growth inhibition, read-out: cytotoxicity (GI50 in μM) renal SN12C
[10] = breast MDA-MB-435, concentration corresponding to 50% growth inhibition, read-out: cytotoxicity (GI50 in μM) breast MDA-MB-435
[11] = all human cancer cell lines successfully tested

Row | Structure (SMILES) | GI50 (CNS SF-539; [3]) [µM] | GI50 (colon HCT-116; [4]) [µM] | GI50 (lung HOP-62; [5]) [µM] | GI50 (melanoma UACC-62; [6]) [µM] | GI50 (ovarian OVCAR-3; [7]) [µM] | GI50 (prostate DU-145; [8]) [µM] | GI50 (renal SN12C; [9]) [µM] | GI50 (breast MDA-MB-435; [10]) [µM] | MGM (mean GI50 across cell lines) [1, 11] [nM] | GI50 (CNS SF-539) [µM] | GI50 (colon HCT-116) [µM] | GI50 (lung HOP-62) [µM] | GI50 (melanoma UACC-62) [µM] | GI50 (ovarian OVCAR-3) [µM] | GI50 (prostate DU-145) [µM] | GI50 (renal SN12C) [µM] | GI50 (breast MDA-MB-435) [µM] | MGM (mean graph midpoint for growth inhibition) [1, 11] [µM] | other results
1 | CC(C)(C)OC(=O)N(CCCN(CCn1c2c(c3ccccc3c1=O)C(=O)c1ccccc1-2)C(=O)OC(C)(C)C)CCn1c2c(c3ccccc3c1=O)C(=O)c1ccccc1-2 [Compound 13a, Bis-1,3-{(5,6-dihydro-5,11-diketo-11H-indeno[1,2-c]isoquinoline)-(6-ethyl-tert-BOCamino)}propane] | > 50.1 | 22.9 | 22.4 | > 50.1 | 21.4 | > 50.1 | > 50.1 | > 50.1 | 33900 | – | – | – | – | – | – | – | – | – | –
2 | CC(C)(C)OC(=O)N(CCCn1c2c(c3ccccc3c1=O)C(=O)c1ccccc1-2)CCN(CCCn1c2c(c3ccccc3c1=O)C(=O)c1ccccc1-2)C(=O)OC(C)(C)C [Compound 13b, Bis-1,2-{(5,6-dihydro-5,11-diketo-11H-indeno[1,2-c]isoquinoline)-(6-propyl-tert-BOCamino)}ethane] | > 50.1 | 14.1 | 20 | 45.7 | 13.2 | > 50.1 | 39.8 | > 50.1 | 28200 | – | – | – | – | – | – | – | – | – | –
3 | CC(C)(C)OC(=O)N(CCCCN(CCCn1c2c(c3ccccc3c1=O)C(=O)c1ccccc1-2)C(=O)OC(C)(C)C)CCCn1c2c(c3ccccc3c1=O)C(=O)c1ccccc1-2 [Compound 13d, Bis-1,4-{(5,6-dihydro-5,11-diketo-11H-indeno[1,2-c]isoquinoline)-(6-propyl-tert-BOCamino)}butane] | 8.13 | 1.91 | 11 | 93.3 | 69.2 | 47.9 | 36.3 | 69.2 | 35500 | – | – | – | – | – | – | – | – | – | –
4 | O=C(O)C(F)(F)F.O=C1c2ccccc2-c2c1c1ccccc1c(=O)n2CCCNCCn1c2c(c3ccccc3c1=O)C(=O)c1ccccc1-2 [Compound 14a, Bis{(5,6-dihydro-5,11-diketo-11H-indeno[1,2-c]isoquinoline)}-(6-ethyl,6′-propyl)ammonium Trifluoroacetate] | – | – | – | – | – | – | – | – | 5250 | 14.5 | 1.05 | 0.977 | 5.01 | 8.91 | 1.91 | 11 | 2.24 | – | –
5 | O=C(O)C(F)(F)F.O=C(O)C(F)(F)F.O=C1c2ccccc2-c2c1c1ccccc1c(=O)n2CCCN1CCN(CCCn2c3c(c4ccccc4c2=O)C(=O)c2ccccc2-3)CC1 [Compound 14f, Bis-1,4-{(5,6-dihydro-5,11-diketo-11H-indeno[1,2-c]isoquinoline)-6-propyl}piperazine Bis(trifluoroacetate)] | – | – | – | – | – | – | – | – | – | > 100 | 35.5 | 12.9 | > 100 | > 100 | 24 | 15.5 | > 100 | 44.8 ± 2.05 | –
6 | COc1cc2c3c(n(CCNCCCNCCn4c5c(c6cc(OC)c(OC)cc6c4=O)C(=O)c4ccccc4-5)c(=O)c2cc1OC)-c1ccccc1C3=O.O=C(O)C(F)(F)F.O=C(O)C(F)(F)F [Compound 14k, Bis-1,3-{(5,6-dihydro-5,11-diketo-2,3-dimethoxy-11H-indeno[1,2-c]isoquinoline)-6-ethylamino}propane Bis{trifluoroacetate)] | 0.17 | 0.045 | 0.068 | 1.23 | 0.269 | 0.209 | 0.028 | 0.813 | 562 | – | – | – | – | – | – | – | – | – | –
7 | COc1cc2c3c(n(CCCNCCCNCCCn4c5c(c6cc(OC)c(OC)cc6c4=O)C(=O)c4ccccc4-5)c(=O)c2cc1OC)-c1ccccc1C3=O.O=C(O)C(F)(F)F.O=C(O)C(F)(F)F [Compound 14l, Bis-1,3-{(5,6-dihydro-5,11-diketo-2,3-dimethoxy-11H-indeno[1,2-c]isoquinoline)-6-propylamino}propane Bis{trifluoroacetate)] | 4.17 | 0.331 | 1.51 | 4.27 | 9.55 | 19.5 | 0.24 | 3.98 | 6030 | – | – | – | – | – | – | – | – | – | –
8 | O=C(O)C(F)(F)F.O=C(O)C(F)(F)F.O=C1c2ccccc2-c2c1c1ccc([N+](=O)[O-])cc1c(=O)n2CCNCCCNCCn1c2c(c3ccc([N+](=O)[O-])cc3c1=O)C(=O)c1ccccc1-2 [Compound 14m, Bis-1,3-{(5,6-dihydro-5,11-diketo-3-nitro-11H-indeno[1,2-c]isoquinoline)-6-ethylamino}propane Bis{trifluoroacetate)] | 0.324 | 0.044 | 0.631 | 0.603 | 0.245 | 0.813 | 0.123 | 0.437 | – | – | – | – | – | – | – | – | – | 0.354 ± 0.184 | –
9 | O=C(O)C(F)(F)F.O=C(O)C(F)(F)F.O=C1c2ccccc2-c2c1c1ccc([N+](=O)[O-])cc1c(=O)n2CCCNCCCNCCCn1c2c(c3ccc([N+](=O)[O-])cc3c1=O)C(=O)c1ccccc1-2 [Compound 14n, Bis-1,3-{(5,6-dihydro-5,1-diketo-3-nitro-11H-indeno[1,2-c]isoquinoline)-6-propylamino}propane Bis{trifluoroacetate)] | 1.17 | 1.45 | 3.02 | 1.78 | 2.29 | 0.912 | 1.17 | 3.89 | – | – | – | – | – | – | – | – | – | 1.50 ± 0.24 | –
10 | O=C1c2ccccc2-c2c1c1ccccc1c(=O)n2CCNCCO [Compound S-2, oracin, reference compound] | – | – | – | – | – | – | – | – | – | 1.65 | 1.12 | 1.62 | 1.42 | 3.85 | 1.28 | 0.95 | 2.56 | – | MGM (mean graph midpoint for growth inhibition) ([1]; Table 1, average GI50 of all cell lines tested (approximately 55), test range 10^−8 to 10^−4 molar): 1.90 ± 0.80 µM
11 | NCCCn1c2c(c3ccccc3c1=O)C(=O)c1ccccc1-2 [Compound S-3, 5,6-dihyro-6-(3-amino-1-propyl)-5,11-dioxo-11H-indeno[1,2,c]isoquinoline, reference compound] | – | – | – | – | – | – | – | – | – | 0.25 | 0.18 | 0.2 | 0.26 | 1.38 | 0.22 | 0.16 | 0.78 | 0.32 ± 0.23 | –
12 | CC(=O)O[C@H]1C(=O)[C@@]2(C)[C@H]([C@H](OC(=O)c3ccccc3)[C@]3(O)C[C@H](OC(=O)[C@H](O)[C@@H](NC(=O)c4ccccc4)c4ccccc4)C(C)=C1C3(C)C)[C@]1(OC(C)=O)CO[C@@H]1C[C@@H]2O [Paclitaxel, paclitaxel, reference compound] | – | – | – | – | – | – | – | – | – | – | – | – | – | – | – | – | – | – | IP Score ([2]; Table 3): 24; Cell kill ([2]; Table 3): Y; SC score ([2]; Table 3): 8; Total score ([2]; Table 3): 32; IP Score ([2]; Table 4): 24; Cell kill ([2]; Table 4): Y; SC score ([2]; Table 4): 8; Total score ([2]; Table 4): 32
